Ends that are not written are not given here.
What was measured:
postnatal day 7 rats = assay: natural morphine withdrawal, mechanical allodynia and thermal hyperalgesia in vivo; parameters: species or system rat; details: 10 μM intrathecally 2.5 hours after morphine 1 mg/kg; p<0.05 versus Tat carrier or saline
Method: Another study was performed to investigate the roles of PKC isozymes in natural withdrawal, which more closely resembles the clinical setting in addictive sequela. In this study, postnatal day 7 rats were given a single injection of morphine (1 mg/kg) and allowed to undergo natural withdrawal, i.e., naloxone was not administered to precipitate withdrawal. The treatment protocol is shown in FIG. 6A, where 2.5 hours after morphine delivery, εV1-2 or γV5-3 peptide inhibitors were administered intrathecally. Mechanical allodynia and thermal hyperalgesia were evaluated at hourly intervals according to the procedure described in Example 2.
To measure mechanical thresholds, rats were placed on an elevated wire mesh (2 mm openings). Von Frey hairs (Stoelting Co., WoodDale, Ill., USA) were used to elicit a cutaneous flexion withdrawal response as described by Fitzgerald et al. (Fitzgerald M., et al., PAIN […] INFANTS, CHILDREN AND ADOLESCENTS; Schetchter and Yaster, Eds., pp 11-32, Williams and Williams (Baltimore, Md.) (1993). Von Frey hairs of increasing intensity were applied three times to the plantar surface of the left hind paw until a paw withdrawal was elicited. The lowest intensity Von Frey hair required to produce a withdrawal reflex was recorded as the response threshold to a low-intensity mechanical stimulus. […]

[1] = system: 7 day old and 21 day old rats; assay: ethanol withdrawal thermal hyperalgesia testing (paw withdrawal latency); format: in vivo, rat; details: 7 day old rats; intrathecally 4 hours after 4 g/kg 15% EtOH
γPKC = target: T1, γPKC (Rattus norvegicus, UniProt P63319); format: cell-based
T1 construct: from tissue; host or cells: lumbar spinal cord slices of postnatal day 7-10 Sprague-Dawley rats
Method: Fluorescence immunocytochemical studies were performed on the spinal cord sections, as described in Example 3. The sections were incubated with an anti-γPKC antibody and an anti-neuronal antibody to identify neurons. […] Translocation of γPKC was quantified by counting the number of cells with γPKC localized to the nucleus before (control) and after application of ethanol, as well as after washing with artificial cerebrospinal fluid. […] Two to three sections per animal were counted.
Fluorescence immunocytochemical studies were performed on spinal cord sections […] from control slices (perfused with ACSF for 70 minutes) and EtOH treated slices (perfused with ACSF for 30 minutes followed by 20 min 100 mM EtOH and 20 min wash with ACSF). The sections were incubated with a rabbit anti-PKCg polyclonal antibody (1:500) overnight at 4° C. In some cord sections, a mouse anti-neuronal nuclei monoclonal antibody (NeuN, 1:750) was added to identify neurons. After several washes with ACSF, the sections were labeled for 2 hours at room temperature with fluorescein-labeled secondary antibodies (1:500). Double immunofluorescence was assessed with a laser confocal microscope.

[2] = system: N-methyl-D-aspartate (NMDA) receptor currents; assay: alcohol withdrawal hyperresponsiveness of NMDA-evoked currents in lumbar spinal cord slice motor neurons; format: cell-based, rat
Description: Spinal cords were taken from young rats, and slices of these cords were made and placed in artificial cerebrospinal fluid for patch clamp electrophysiological analysis, to characterize the ability of γPKC peptides to mediate alcohol withdrawal hyperresponsiveness of N-methyl-D-aspartate (NMDA) receptor currents. FIG. 7A is a schematic diagram of the technique, where a lumbar spinal cord slice 10 is shown. The placement of a recording electrode 12 and a pipette 14 for application of NMDA relative to a motor neuron 16 is illustrated.
Sprague-Dawley rats at postnatal day 7-10 were anesthetized with halothane, decapitated, and the spinal cords were quickly removed. Slices […] thick were sectioned from the lumbar region. Whole cell voltage clamp recordings were made from visually-identified motor neurons using infrared video microscopy, a 60× water immersion lens, and a MultiClamp 700A patch clamp amplifier. Cells were held at a holding potential of −60 mV in artificial cerebrospinal fluid (ACSF) containing bicuculline methiodide ([…]), strychnine ([…]), and tetrodotoxin ([…]). Postsynaptic currents were evoked by direct pressure application of 2 mM N-methyl-D-aspartate (NMDA) from a pipette positioned near the recorded cell at 1-2 min intervals, as illustrated in FIG. 7A. The area of evoked currents during and following 100 mM ethanol (EtOH) application was measured and normalized to the average baseline current area during the 10 minutes preceding EtOH application. Data are expressed as mean +/−SEM: Statistical significance was determined by one-way ANOVA followed by Dunn's or Tukey's multiple comparison test with significance set at p<0.05.

RLVLAS (also: Tat peptide conjugate; listed as Homo sapiens) [γV5-3]
mechanical allodynia and thermal hyperalgesia during natural withdrawal from morphine (postnatal day 7 rats): attenuated mechanical allodynia and thermal hyperalgesia
thermal hyperalgesia, paw withdrawal latency [1]: completely prevented thermal hyperalgesia
number of cells having γPKC localized in the nucleus (γPKC; peptide applied 20 minutes prior to ethanol): about 14
block of γPKC translocation to the cytoplasm (γPKC; peptide applied prior to ethanol exposure): effective to block γPKC translocation to the cytoplasm
block of ethanol withdrawal hyperresponsiveness of NMDA-evoked currents ([2]; 2 nM peptide, ethanol 100 mM 15 minutes then wash): did not completely block withdrawal hyperresponsiveness
block of ethanol withdrawal hyperresponsiveness of NMDA-evoked currents ([2]; 5-10 nM peptide, ethanol 100 mM then wash): effectively blocked ethanol withdrawal hyperresponsiveness
